# Where “and” joins values, the source holds several entries; their conditions need not be identical. Identical values can stand only once.
# System: GRABDA dopamine sensor, nucleus accumbens shell
# Assay: Fibre photometry of dopamine (GRABDA) after cocaine administration
# Format: in vivo, rat
# Design: GRABDA dopamine response per dose (sheet 4i), individual rats / GRABDA dopamine response per dose (sheet 4i), Mean: unit not given here
# Details: for GRABDA dopamine signal, Mean / GRABDA dopamine signal, individual rats: Cocaine 5 mg/kg; for GRABDA dopamine signal, AVG: ED Fig. 9a, Cocaine 10 mg/kg
# Procedure: Male Sprague–Dawley rats were anaesthetized with isoflurane (1.5–2%) and then placed onto a stereotaxic frame (Kopf) and injected with AAV5-Syn::coca-5HT3-IRES-mCherry (0.5 µl, 4.95 × 10^12 vg per ml) into the LHb (AP, −3.8 mm relative to bregma; ML, ±0.7 mm; DV, −5.25 mm, at a 10° angle) (n = 5) or underwent sham surgery (n = 6). Rats were also implanted with an optic fibre (400 µm core, 0.50 NA) attached to a 2.5 mm diameter ferrule (Thorlabs) directed to the medial shell of the nucleus accumbens (AP, +1.7 mm relative to bregma; ML, ±0.9 mm; DV, −7.0 mm). To ensure that AAV9-Syn::GRABDA1m was transduced at the direct vicinity of the fibre tip, we coated the fibre with the AAV (0.4 µl, 5 × 10^12 vg per ml) using a silk fibroin film before its implantation as previously described.
# For fibre photometry, dopamine (GRABDA) dynamics were measured using a Tucker-Davis Technologies (TDT) system in anaesthetized rats. […] Data were acquired at 1 kHz. On the testing day, rats were anaesthetized (isoflurane: induction, 5%; maintenance, 3%) and attached to a photometry patch cord (400 μm core, 0.50 NA). GRABDA signals were then collected for 5 min, followed by a saline i.p. injection, and additional GRABDA signal measurement for 20 min. Cocaine was then injected i.p. at 20, 10 or 5 mg per kg, and the GRABDA signal was measured for an additional 20 min. Each rat was tested three times with cocaine doses administered in randomized order. Fibre photometry analyses were performed using scripts in MATLAB R2023b (MathWorks) based on codes from the Barker (https://github.com/djamesbarker)[64] and Lerner (https://github.com/talialerner/)[65] laboratories. […] The GRABDA signal was normalized to values at 1 min before saline or cocaine injection and shown as the average z-scored activity per min. […] Fibre photometry data are represented as mean ± s.e.m. Statistical analyses were performed using Prism 10 (GraphPad).
smiles,measurement,setting,value
COC(=O)[C@H]1[C@@H](OC(=O)c2ccccc2)C[C@@H]2CC[C@H]1N2C [cocaine],"GRABDA dopamine response per dose (sheet 4i), Mean","Coca-5HT3 rats, Dose 5 mg/kg",-63058.3
same,"GRABDA dopamine response per dose (sheet 4i), individual rats","Coca-5HT3 rats, Dose 5 mg/kg",-172031 and 384223 and 532188 and -477527 and -582145
same,"GRABDA dopamine response per dose (sheet 4i), Mean","Coca-5HT3 rats, Dose 10 mg/kg",347550
same,"GRABDA dopamine response per dose (sheet 4i), individual rats","Coca-5HT3 rats, Dose 10 mg/kg",537591 and 787483 and 404806 and 428321 and -420452
same,"GRABDA dopamine response per dose (sheet 4i), Mean","Coca-5HT3 rats, Dose 20 mg/kg",29421.8
same,"GRABDA dopamine response per dose (sheet 4i), individual rats","Coca-5HT3 rats, Dose 20 mg/kg",-332785 and -760751 and 326619 and 420379 and 493647
same,"GRABDA dopamine signal, Mean","Time 0, sheet 4g, 6 rats",0
same,"GRABDA dopamine signal, Mean","Time 0, sheet 4h, 5 rats",0.3508
same,"GRABDA dopamine signal, Mean","Time 1, sheet 4g, 6 rats",0.02583
same,"GRABDA dopamine signal, Mean","Time 1, sheet 4h, 5 rats",0.1222
same,"GRABDA dopamine signal, Mean","Time 2, sheet 4g, 6 rats",0.2299
same,"GRABDA dopamine signal, Mean","Time 2, sheet 4h, 5 rats",0.04413
same,"GRABDA dopamine signal, Mean","Time 3, sheet 4g, 6 rats",0.7586
same,"GRABDA dopamine signal, Mean","Time 3, sheet 4h, 5 rats",0.02999
same,"GRABDA dopamine signal, individual rats","Time 4, sheet 4g",0.7973 and 0.9252 and 2.611 and 0.5744 and 0.4159 and 0.8485
same,"GRABDA dopamine signal, Mean","Time 4, sheet 4g, 6 rats",1.0287
same,"GRABDA dopamine signal, Mean","Time 4, sheet 4h, 5 rats",-0.002503
same,"GRABDA dopamine signal, individual rats","Time 5, sheet 4g",1.23 and 1.254 and 3.178 and 1.255 and 0.28 and 0.3357
same,"GRABDA dopamine signal, Mean","Time 5, sheet 4g, 6 rats",1.255
same,"GRABDA dopamine signal, Mean","Time 5, sheet 4h, 5 rats",0.4003
same,"GRABDA dopamine signal, individual rats","Time 6, sheet 4g",1.399 and 1.386 and 3.378 and 1.497 and 0.2966 and 0.5676
same,"GRABDA dopamine signal, Mean","Time 6, sheet 4g, 6 rats",1.4208
same,"GRABDA dopamine signal, Mean","Time 6, sheet 4h, 5 rats",0.7136
same,"GRABDA dopamine signal, individual rats","Time 7, sheet 4g",1.395 and 1.753 and 3.423 and 2.3 and 0.321 and 1.639
same,"GRABDA dopamine signal, Mean","Time 7, sheet 4g, 6 rats",1.805
same,"GRABDA dopamine signal, Mean","Time 7, sheet 4h, 5 rats",0.8408
same,"GRABDA dopamine signal, individual rats","Time 8, sheet 4g",1.672 and 1.969 and 3.288 and 2.2806 and 0.5769 and 1.2461
same,"GRABDA dopamine signal, Mean","Time 8, sheet 4g, 6 rats",1.839
same,"GRABDA dopamine signal, Mean","Time 8, sheet 4h, 5 rats",0.8223
same,"GRABDA dopamine signal, individual rats","Time 9, sheet 4g",1.777 and 2.101 and 2.8254 and 2.6993 and 0.4303 and 1.7436
same,"GRABDA dopamine signal, Mean","Time 9, sheet 4g, 6 rats",1.93
same,"GRABDA dopamine signal, Mean","Time 9, sheet 4h, 5 rats",0.8303
same,"GRABDA dopamine signal, individual rats","Time 10, sheet 4g",1.667 and 2.313 and 2.507 and 2.586 and 1.167 and 0.977
same,"GRABDA dopamine signal, Mean","Time 10, sheet 4g, 6 rats",1.869
same,"GRABDA dopamine signal, Mean","Time 10, sheet 4h, 5 rats",0.9165
same,"GRABDA dopamine signal, individual rats","Time 11, sheet 4g",1.6386 and 2.495 and 2.468 and 3.874 and 0.606 and 2.597
same,"GRABDA dopamine signal, Mean","Time 11, sheet 4g, 6 rats",2.28
same,"GRABDA dopamine signal, Mean","Time 11, sheet 4h, 5 rats",0.6597
same,"GRABDA dopamine signal, individual rats","Time 12, sheet 4g",1.957 and 2.546 and 2.0788 and 2.652 and 0.8197 and 2.605
same,"GRABDA dopamine signal, Mean","Time 12, sheet 4g, 6 rats",2.11
same,"GRABDA dopamine signal, Mean","Time 12, sheet 4h, 5 rats",0.5883
same,"GRABDA dopamine signal, individual rats","Time 13, sheet 4g",1.603 and 2.238 and 1.918 and 2.979 and 1.082 and 2.101
same,"GRABDA dopamine signal, Mean","Time 13, sheet 4g, 6 rats",1.987
same,"GRABDA dopamine signal, Mean","Time 13, sheet 4h, 5 rats",0.5593
same,"GRABDA dopamine signal, individual rats","Time 14, sheet 4g",1.849 and 2.2953 and 1.648 and 2.627 and 1.351 and 2.787
same,"GRABDA dopamine signal, Mean","Time 14, sheet 4g, 6 rats",2.093
same,"GRABDA dopamine signal, Mean","Time 14, sheet 4h, 5 rats",0.3765
same,"GRABDA dopamine signal, individual rats","Time 15, sheet 4g",1.345 and 2.273 and 1.221 and 3.749 and 1.032 and 2.415
same,"GRABDA dopamine signal, Mean","Time 15, sheet 4g, 6 rats",2.006
same,"GRABDA dopamine signal, Mean","Time 15, sheet 4h, 5 rats",0.2825
same,"GRABDA dopamine signal, individual rats","Time 16, sheet 4g",1.5856 and 2.161 and 1.005 and 2.897 and 1.378 and 2.623
same,"GRABDA dopamine signal, Mean","Time 16, sheet 4g, 6 rats",1.942
same,"GRABDA dopamine signal, Mean","Time 16, sheet 4h, 5 rats",0.2717
same,"GRABDA dopamine signal, individual rats","Time 17, sheet 4g",1.282 and 2.066 and 0.8019 and 2.5132 and 1.107 and 1.846
same,"GRABDA dopamine signal, Mean","Time 17, sheet 4g, 6 rats",1.6029
same,"GRABDA dopamine signal, Mean","Time 17, sheet 4h, 5 rats",0.2019
same,"GRABDA dopamine signal, individual rats","Time 18, sheet 4g",1.176 and 1.956 (2×) and 0.485 and 2.977 and 1.512
same,"GRABDA dopamine signal, Mean","Time 18, sheet 4g, 6 rats",1.677
same,"GRABDA dopamine signal, Mean","Time 18, sheet 4h, 5 rats",0.2838
same,"GRABDA dopamine signal, individual rats","Time 19, sheet 4g",1.43 and 1.847 and 0.2727 and 2.8958 and 1.19 and 1.677
same,"GRABDA dopamine signal, Mean","Time 19, sheet 4g, 6 rats",1.552
same,"GRABDA dopamine signal, Mean","Time 19, sheet 4h, 5 rats",0.4407
same,"GRABDA dopamine signal, individual rats","Time -1, sheet 4g",0.1891 and 0.00306 and 0.03687 and -0.1715
same,"GRABDA dopamine signal, Mean","Time -1, sheet 4g, 6 rats",0.08979
same,"GRABDA dopamine signal, Mean","Time -1, sheet 4h, 5 rats",-0.1218
same,"GRABDA dopamine response per dose (sheet 4i), Mean","Control rats, Dose 5 mg/kg",575620
same,"GRABDA dopamine response per dose (sheet 4i), individual rats","Control rats, Dose 5 mg/kg",1106356 and 625102 and 499430 and 534300 and 481000 and 207530
same,"GRABDA dopamine response per dose (sheet 4i), Mean","Control rats, Dose 10 mg/kg",513482
same,"GRABDA dopamine response per dose (sheet 4i), individual rats","Control rats, Dose 10 mg/kg",1063773 and 869765 and 258346 and 365520 and 172520 and 350970
same,"GRABDA dopamine response per dose (sheet 4i), Mean","Control rats, Dose 20 mg/kg",564660
same,"GRABDA dopamine response per dose (sheet 4i), individual rats","Control rats, Dose 20 mg/kg",543312 and 940737 and 382973 and 597550 and 499710 and 423680
same,"GRABDA dopamine signal, AVG",Time 0,0.01595
same,"GRABDA dopamine signal, AVG",Time 1,0.04899
same,"GRABDA dopamine signal, AVG",Time 2,0.1402
same,"GRABDA dopamine signal, AVG",Time 3,0.549
same,"GRABDA dopamine signal, AVG",Time 4,0.7571

# — PMC12527922, “Cocaine chemogenetics blunts drug-seeking by synthetic physiology” (Nature, 2025)
